According to patent publication US10450305B2, “LKB1-AMPK activators for therapeutic use in polycystic kidney disease” (The University of Kansas, priority 2014, dated 2019):

What was measured:
[1] = tested on: AMPK; assay: Western blot of phosphorylated AMPK (P-AMPK/AMPK) in ADPKD cells; assay type: cell-based, human; conditions: for phosphorylation of AMPK: 100 nm, 24 h; for rank order of the effect on AMPK phosphorylation: western blot
Protocol: (§1) We designed and synthesized a small molecule LKB1 activator BIT-11 by incorporating an oxadiazole moiety into a unique 3-substituted 2H-chromene derivative. The effects of BIT-11 on phosphorylated AMPK (P-AMPK) and S6 kinase (P-S6K), a downstream target of mTOR, were determined by western blot analysis. To test the drug's effect on Cl^− transport, ADPKD monolayers were incubated in the absence and presence of BIT-11 and then treated with forskolin, a cAMP agonist. Changes in Cl^− transport were measured by short circuit current. For in vitro cyst growth assays, ADPKD cells were seeded within a collagen matrix and treated with EGF and forskolin±BIT-11, and total surface area of cysts per well was calculated from individual cyst diameters. […] The numbers above blots indicate P-AMPK/AMPK normalized to control. […] ADPKD cells were treated with BIT129, BIT130, and BIT131 (e.g., 100 nm) for 24 h, then cell lysates were prepared. […] The rank order of the effect of the new drugs on AMPK phosphorylation was BIT-131>BIT-130>BIT-129.

[2] = tested on: ADPKD cell monolayers; conditions: found previously, selective CFTR inhibitor; cited from earlier work
[3] = in vivo; cited from earlier work
[4] = tested on: ADPKD cell monolayers; assay: cAMP-induced Cl- secretion (short circuit current) across ADPKD cell monolayers; assay type: cell-based, human; conditions: 10 μM for 24 hours, FSK 10 μM, n=10 pairs of monolayers
Protocol: (§2) We designed and synthesized a small molecule LKB1 activator BIT-11 by incorporating an oxadiazole moiety into a unique 3-substituted 2H-chromene derivative. The effects of BIT-11 on phosphorylated AMPK (P-AMPK) and S6 kinase (P-S6K), a downstream target of mTOR, were determined by western blot analysis. To test the drug's effect on Cl^− transport, ADPKD monolayers were incubated in the absence and presence of BIT-11 and then treated with forskolin, a cAMP agonist. Changes in Cl^− transport were measured by short circuit current. For in vitro cyst growth assays, ADPKD cells were seeded within a collagen matrix and treated with EGF and forskolin±BIT-11, and total surface area of cysts per well was calculated from individual cyst diameters.
FIG. 5A-5B show the effect of BIT-11 on cAMP-induced Cl^− secretion by ADPKD cell monolayers. ADPKD cells were grown as polarized monolayers on permeable Snapwell supports. […] ADPKD monolayers were mounted in Ussing chambers and treated with 10 μM benzamil to block the Na^+ current prior to the experiment. FSK (10 μM), a potent cAMP agonist, was added to maximally stimulate anion secretion.

[5] = tested on: human ADPKD cells; assay: Proliferation of human ADPKD cells (automated cell count); assay type: cell-based; conditions: 10 to 1000 nM, 48 h, 0.05% fetal bovine serum
Source text: Cells were counted using an automated cell counter.

[6] = tested on: S6 kinase (S6K); assay: Western blot of phosphorylated S6 kinase (P-S6K/S6K), downstream target of mTOR, in ADPKD cells; assay type: cell-based, human; conditions: 24 hours, control media 0.05% fetal bovine serum
Protocol: as §1

[7] = tested on: Pkd1 mutant kidneys; assay: Ex vivo cyst formation in Pkd1-/- embryonic kidneys in metanephric organ culture; parameters: species or system mouse; conditions: 10 μM, 100 μM 8-Br-cAMP, E15.5 kidneys, 4 days in culture
Protocol: FIG. 6 includes images that show the effect of BIT-11 on cyst-like tubule expansions in Pkd1 mutant kidneys. Kidneys were harvested from Pkd1 mutant (Pkd1^−/−) mice at embryonic day 15.5 (E15.5) and placed on permeable cell culture inserts. The kidneys were bathed in media containing 100 μM 8-Bromo-adenosine 3′,5′-cyclic monophosphate (cAMP) to stimulate mural epithelial cell proliferation and Cl^−-dependent fluid secretion, key factors in cyst formation. Images of kidneys were captured using a digital camera connected to a dissecting microscope and cystic area was monitored for 4 days. cAMP induced the formation of cyst-like dilations in Pkd1^−/− kidneys that progressively enlarged over 4 days in culture.

[8] = tested on: human ADPKD cells; assay: In vitro cyst growth of ADPKD cells within a collagen matrix; assay type: cell-based; conditions: 5 μM forskolin and 5 ng/ml EGF, cysts diameter ≥50 μm
Protocol: as §2
Cells were seeded in PureCol Type I collagen and stimulated to form cysts with 5 μM forskolin (FSK) and 5 ng/ml epidermal growth factor (EGF) for 3 days. […] FIG. 4A includes representative images of individual wells.

[9] = Tolerability in wild type mice; assay type: in vivo; conditions: mice, 5, 10 and 25 mg/kg i.p., once per day for 4 days
Protocol: (§3) Normal mice were given BIT-11 at 5, 10 or 25 mg/kg body weight by daily intraperitoneal injection for 4 days. BIT-11 was delivered at 20% DMSO and 80% corn oil. Two hours after the last injection, the mice were sacrificed and the kidneys were snap-frozen and stored at −80 degree C., until tissue lysates were prepared. Tissues were homogenized in a lysis buffer containing detergent and protease and phosphatase inhibitors. Proteins were resolved by SDS PAGE and detected by immunoblot using P-AMPK and AMPK antibodies.
(§4) Another study included dosing wild type mice with BIT-11 once per day for 4 days and measured P-AMPK levels in the kidneys two hours after the last dose.

[10] = tested on: AMPK; assay: P-AMPK levels in kidneys of wild type mice after i.p. dosing; assay type: in vivo, mouse; conditions: wild type mice, 5, 10 or 25 mg/kg i.p. once per day for 4 days, two hours after last dose, compared to vehicle
Protocol: as §3, §4

OB(O)c1ccc(-c2noc(C3=Cc4cc(Cl)cc(Cl)c4OC3c3ccccc3)n2)cc1 (stereo not drawn) [BIT-130]
phosphorylation of AMPK ([1]; ADPKD cells): can promote phosphorylation of AMPK
rank order of the effect on AMPK phosphorylation ([1]; ADPKD cells): BIT-131>BIT-130>BIT-129

O=C(O)c1ccc(/C=C2\SC(=S)N(c3cccc(C(F)(F)F)c3)C2=O)cc1 [CFTRinh-172]
anion current across ADPKD monolayers [2]: completely blocked

CC1(C)OB(c2ccc(-c3noc(C4=Cc5cc(Cl)cc(Cl)c5OC4c4ccccc4)n3)cc2)OC1(C)C (stereo not drawn) [BIT-129]
phosphorylation of AMPK ([1]; ADPKD cells): can promote phosphorylation of AMPK
rank order of the effect on AMPK phosphorylation ([1]; ADPKD cells): BIT-131>BIT-130>BIT-129

CN(C)C(=N)N=C(N)N [Metformin]
eliminated by renal excretion [3]: ~80%

O=C(O)c1ccc(-c2noc(C3=Cc4cc(Cl)cc(Cl)c4OC3c3ccccc3)n2)cc1 (stereo not drawn) [BIT-11]
cAMP-induced Cl- secretion (steady-state short circuit current) [4]: a decrease in cAMP-induced Cl^− secretion
effect on proliferation of human ADPKD cells [5]: increasingly inhibit proliferation of ADPKD cells
effect on P-S6K/S6K [6]: can inhibit phosphorylation of S6K increasingly at increasing amounts
cyst formation in Pkd1-/- kidneys [7]: nearly eliminated cyst formation
effect on P-AMPK/AMPK ([1]; ADPKD cells, BIT-11 at 10 nM, 100 nM and 1,000 nM, 24 hours): can promote phosphorylation of AMPK increasingly with increasing amounts
biological activity compared with AMPK activator Metformin ([1]; comparison with Metformin): much better efficacy
total cyst surface area (in vitro cyst growth) [8]: can inhibit cyst proliferation
tolerability [9]: well tolerated
P-AMPK levels in the kidneys [10]: markedly increased P-AMPK levels in the kidneys
